Measurements from patent US20050159427A1, “N-acylsulfonamide apoptosis promoters” (priority 2003, published 2005).

Tests used:
SuDHL4 = SuDHL4 model of B-cell follicular lymphoma; format: in vivo
HS-578T = assay: Tumor cell viability (TABLE 1); format: cell-based; conditions: Homo sapiens, read-out: EC50 (50% reduction in cell viability); HS-578T (Breast); serum-free conditions, 48 hour treatment; mean ± SEM
MALME-3M = assay: Tumor cell viability (TABLE 1); format: cell-based; conditions: Homo sapiens, read-out: EC50 (50% reduction in cell viability); MALME-3M (Melanoma); serum-free conditions, 48 hour treatment; mean ± SEM
DLD-1 = assay: Tumor cell viability (TABLE 1); format: cell-based; conditions: Homo sapiens, read-out: EC50 (50% reduction in cell viability); DLD-1 (Colorectal); serum-free conditions, 48 hour treatment; mean ± SEM
HT-29 = assay: Tumor cell viability (TABLE 1); format: cell-based; conditions: Homo sapiens, read-out: EC50 (50% reduction in cell viability); HT-29 (Colorectal); serum-free conditions, 48 hour treatment; mean ± SEM
U251 = assay: Tumor cell viability (TABLE 1); format: cell-based; conditions: Homo sapiens, U-251, read-out: EC50 (50% reduction in cell viability); U251 (CNS); serum-free conditions, 48 hour treatment; mean ± SEM
RXF-393 = assay: Tumor cell viability (TABLE 1); format: cell-based; conditions: Homo sapiens, read-out: EC50 (50% reduction in cell viability); RXF-393 (Renal); serum-free conditions, 48 hour treatment; mean ± SEM
PC3 = PC3 derived murine model of prostate cancer; format: in vivo
LOX IMVI = assay: Tumor cell viability (TABLE 1); format: cell-based; conditions: Homo sapiens, read-out: EC50 (50% reduction in cell viability); LOX IMVI (Melanoma); serum-free conditions, 48 hour treatment; mean ± SEM
MCF7 = assay: Tumor cell viability (TABLE 1); format: cell-based; conditions: Homo sapiens, read-out: EC50 (50% reduction in cell viability); MCF7 (Breast); serum-free conditions, 48 hour treatment; mean ± SEM
T47D = assay: Tumor cell viability (TABLE 1); format: cell-based; conditions: Homo sapiens, read-out: EC50 (50% reduction in cell viability); T47D (Breast); serum-free conditions, 48 hour treatment
[1] = Combination therapy studies with cytotoxic agents; conditions: with etoposide, vincristine, modified CHOP, doxorubicin, rapamycin and Rituxin®
HOP-62 = assay: Tumor cell viability (TABLE 1); format: cell-based; conditions: Homo sapiens, read-out: EC50 (50% reduction in cell viability); HOP-62 (Non-Small Cell Lung); serum-free conditions, 48 hour treatment; mean ± SEM
HCT-116 = assay: Tumor cell viability (TABLE 1); format: cell-based; conditions: Homo sapiens, read-out: EC50 (50% reduction in cell viability); HCT-116 (Colorectal); serum-free conditions, 48 hour treatment; mean ± SEM
SN12C = assay: Tumor cell viability (TABLE 1); format: cell-based; conditions: Homo sapiens, read-out: EC50 (50% reduction in cell viability); SN12C (Renal); serum-free conditions, 48 hour treatment; mean ± SEM
OVCAR-8 = assay: Tumor cell viability (TABLE 1); format: cell-based; conditions: Homo sapiens, read-out: EC50 (50% reduction in cell viability); OVCAR-8 (Ovarian); serum-free conditions, 48 hour treatment; mean ± SEM
U87MG = assay: Tumor cell viability (TABLE 1); format: cell-based; conditions: Homo sapiens, U-87 MG, read-out: EC50 (50% reduction in cell viability); U87MG (Glioma); serum-free conditions, 48 hour treatment; mean ± SEM
SK-MEL-5 = assay: Tumor cell viability (TABLE 1); format: cell-based; conditions: Homo sapiens, read-out: EC50 (50% reduction in cell viability); SK-MEL-5 (Melanoma); serum-free conditions, 48 hour treatment; mean ± SEM
SK-MEL-28 = assay: Tumor cell viability (TABLE 1); format: cell-based; conditions: Homo sapiens, read-out: EC50 (50% reduction in cell viability); SK-MEL-28 (Melanoma); serum-free conditions, 48 hour treatment; mean ± SEM
NCI-H322M = assay: Tumor cell viability (TABLE 1); format: cell-based; conditions: Homo sapiens, read-out: EC50 (50% reduction in cell viability); NCI-H322M (Non-Small Cell Lung); serum-free conditions, 48 hour treatment; mean ± SEM
H146 = H146 small cell lung cancer murine model; format: in vivo
Text: (H146 and SCLC xenograft) from human-derived small cell lung cancer isolated from smokers and nonsmokers, defective for Rb/p53 gene function, and expresseive of moderately high levels of Bcl-2.

Calu-6 = assay: Tumor cell viability (TABLE 1); format: cell-based; conditions: Homo sapiens, read-out: EC50 (50% reduction in cell viability); Calu-6 (Non-Small Cell Lung); serum-free conditions, 48 hour treatment; mean ± SEM
OVCAR-4 = assay: Tumor cell viability (TABLE 1); format: cell-based; conditions: Homo sapiens, read-out: EC50 (50% reduction in cell viability); OVCAR-4 (Ovarian); serum-free conditions, 48 hour treatment; mean ± SEM
NCI-H226 = assay: Tumor cell viability (TABLE 1); format: cell-based; conditions: Homo sapiens, read-out: EC50 (50% reduction in cell viability); NCI-H226 (Non-Small Cell Lung); serum-free conditions, 48 hour treatment; mean ± SEM
A549/ATCC = assay: Tumor cell viability (TABLE 1); format: cell-based; conditions: Homo sapiens, read-out: EC50 (50% reduction in cell viability); A549/ATCC (Non-Small Cell Lung); serum-free conditions, 48 hour treatment; mean ± SEM
NCI/ADR-RES = assay: Tumor cell viability (TABLE 1); format: cell-based; conditions: Homo sapiens, read-out: EC50 (50% reduction in cell viability); NCI/ADR-RES (Breast); serum-free conditions, 48 hour treatment

For `CN(C)CC[C@H](CSc1ccccc1)Nc1ccc(S(=O)(=O)NC(=O)c2ccc(N3CCN(Cc4ccccc4-c4ccc(Cl)cc4)CC3)cc2)cc1[N+](=O)[O-]` [EXAMPLE 2, N-(4-(4-((4′-chloro(1,1′-biphenyl)-2-yl)methyl)piperazin-1-yl)benzoyl)-4-(((1R)-3-(dimethylamino)-1-((phenylsulfanyl)methyl)propyl)amino)-3-nitrobenzenesulfonamide], the “activity in follicular lymphoma model” value (SuDHL4) was “significant activity”, the EC50 (HS-578T) was 7.2 ± 8.2 µM and the EC50 (MALME-3M) was 1.9 ± 0.8 µM. It also gave an EC50 (DLD-1) of 0.99 ± 0.45 µM, an EC50 (HT-29) of 1.1 ± 1.1 µM and an EC50 (U251) of 3.8 ± 2 µM. For the same compound, the EC50 (RXF-393) was 2.9 ± 0.4 µM, the “inhibition of tumor growth rate” value (PC3; PC3 derived murine model of prostate cancer) was 40-50% and the “therapeutic utility in prostate cancer model” value (PC3; mouse, in vivo) was “Therapeutic utility was also observed”. The EC50 (LOX IMVI) was 1.7 ± 0.4 µM, the EC50 (MCF7) was 2 ± 0.8 µM and the EC50 (T47D) was greater than 10 µM. The “effect on efficacy of cytotoxic agents during combination therapy” value [1] was “synergistically enhanced efficacy”, the EC50 (HOP-62) was 6.3 ± 6.7 µM and the EC50 (HCT-116) was 2.1 ± 1.8 µM. For the same compound, the EC50 (SN12C) was 3.2 ± 0.2 µM, the EC50 (OVCAR-8) was 3.4 ± 0.8 µM and the EC50 (U87MG) was 2.7 ± 1.8 µM. The EC50 (SK-MEL-5) was 3.7 ± 0.8 µM, the EC50 (SK-MEL-28) was 9.3 ± 0.1 µM and the EC50 (NCI-H322M) was 4.1 ± 0.8 µM. For the same compound, the tumor regression (H146; H146 model, in some cases tumor disappearance after prolonged therapy) was “complete regression of an established tumor”, the anti-tumor activity (H146; H146 murine model, human-derived small cell lung cancer) was “demonstrated anti-tumor activity” and the EC50 (Calu-6) was 0.18 ± 0.07 µM. For the same compound, the EC50 (OVCAR-4) was 22 ± 3 µM, the EC50 (NCI-H226) was 2.6 ± 1.1 µM and the EC50 (A549/ATCC) was 5.2 ± 0.2 µM. The EC50 (NCI/ADR-RES) was greater than 10 µM.
